Test results as given in the OPERA property sets (Mansouri et al. 2018).

Conditions: not given

Row | SMILES | boiling point [°C] | log10 vapour pressure (mmHg) | melting point [°C] | ready biodegradability | log10 biodegradation half-life (days) | log10 Koc (L/kg) | log10 Henry constant (atm·m³/mol) | log10 Koa
1 | FC(F)(F)C(F)(F)C(F)(F)C(F)(F)N(C(F)(F)C(F)(F)C(F)(F)C(F)(F)F)C(F)(F)C(F)(F)C(F)(F)C(F)(F)F | 178 | -0.258 | -50 | not readily biodegradable | – | – | – | –
2 | O=C1CSC(=S)N1c1ccccc1 | – | – | 194 | – | – | – | – | –
3 | CCCCCCCCCCCCCCCCCCCCCCCCCCCCC | 441 | -9.37 | 63.7 | readily biodegradable | 2 | – | – | –
4 | CCCC(=O)OCc1ccccc1 | 239 | – | – | – | – | – | – | –
5 | CCC(O)CCl (stereo unspecified) | 141 | – | – | – | – | – | – | –
6 | CCCCCCCCCCCCOS(=O)(=O)O | – | – | – | readily biodegradable | – | – | – | –
7 | CC1=CCCC=C1 | 108 | – | – | – | – | – | – | –
8 | C=C=CCCl | 88 | – | – | – | – | – | – | –
9 | O=C(O)Cc1cc(I)c(Oc2ccc(O)c(I)c2)c(I)c1 | – | – | 182 | – | – | – | – | –
10 | O=C1C(Cl)=CC(=NCl)C=C1Cl | – | – | 66 | – | – | – | – | –
11 | CCc1ccc(C)o1 | 118 | – | – | – | – | – | – | –
12 | CCCCCCC(=O)CC | 190 | – | -8 | – | – | – | – | –
13 | Brc1cccs1 | 150 | 1.37 | – | – | – | – | – | –
14 | O=C1C=CC(=Nc2ccc(O)cc2)C=C1 | – | – | 160 | – | – | – | – | –
15 | Cc1cc(C(=O)NNCc2ccccc2)no1 | – | – | 106 | – | – | – | – | –
16 | CCCCCCCCCCCC(=O)OCC | 271 | – | -10 | – | – | – | – | –
17 | c1ccc(-c2nc3ccccc3[nH]2)cc1 | – | – | 293 | – | – | – | – | –
18 | C=C(C)C(=O)OC1CCCCC1 | – | – | – | readily biodegradable | – | – | – | –
19 | Nc1ccc(S(=O)(=O)Nc2ccccc2)cc1 | – | – | 200 | – | – | – | – | –
20 | Clc1ccc(Oc2cccc(Cl)c2)cc1 | – | -3.19 | – | – | – | – | – | –
21 | CC(C)COc1ccc2ccccc2c1 | – | – | 31 | not readily biodegradable | – | – | – | –
22 | Nc1cccc(-c2cccc(N)c2)c1 | – | – | 93.5 | – | – | – | – | –
23 | C=C1C(O)CC2(C(C)C)CC12 (stereo unspecified) | 208 | – | – | – | – | – | – | –
24 | O=C1C=CC(=O)c2c(Cl)cccc21 | – | – | 163 | – | – | – | – | –
25 | CC12CCC(C(=O)C1=O)C2(C)C (racemic) | – | – | 199 | – | – | – | – | –
26 | CCN(CC)CCC1(c2ccccc2)C(=O)Oc2ccccc21 (stereo unspecified) | – | – | 43.4 | – | – | – | – | –

Row | SMILES | boiling point [°C] | log10 vapour pressure (mmHg) | melting point [°C] | ready biodegradability | log10 biodegradation half-life (days) | log10 Koc (L/kg) | log10 Henry constant (atm·m³/mol) | log10 Koa
27 | CC1CCC2C(=O)OC(=O)C2C1 (stereo unspecified) | – | – | – | not readily biodegradable | – | – | – | –
28 | CCOC(=O)c1ccc([N+](=O)[O-])cc1 | 186 | – | 57 | – | – | 2.48 | – | –
29 | C[N+](C)(C)CCOC(=O)CCC(=O)OCC[N+](C)(C)C.[I-].[I-] | – | – | 244 | – | – | – | – | –
30 | COc1cccc(Cl)c1 | 194 | – | – | – | – | – | – | –
31 | ClC(Cl)=C(Cl)Cl | 121 | 1.27 | -22.3 | not readily biodegradable | – | 2.4 | -1.75 | 3.48
32 | CCc1ccc(Cc2ccccc2)cc1 | 297 | – | -24 | – | – | – | – | –
33 | O=C(NC(=O)c1c(F)cccc1F)Nc1ccc(Cl)cc1 | – | -9.05 | 239 | – | – | 3.83 | – | –
34 | Fc1ccccc1F | 94 | 1.73 | -34 | not readily biodegradable | – | – | – | –
35 | CC1CN1 (stereo unspecified) | 67 | 2.15 | -65 | – | – | – | – | –
36 | COc1c(Cl)ccc(Cl)c1Cl | 227 | – | 45 | – | – | – | -3.54 | –
37 | O=C1C=C2C(=CCOC2O)O1 (stereo unspecified) | – | – | 111 | – | – | – | – | –
38 | CCCCCCCCCCCCCCCCI | – | -4.78 | 22 | – | – | – | – | –
39 | O=C(O)c1ccc(Cl)c([N+](=O)[O-])c1 | – | – | 183 | – | – | – | – | –
40 | CC(C)C(c1ccccc1)C(C)C | 221 | – | -24.5 | – | – | – | – | –
41 | C=CC(O)CCl (stereo unspecified) | 146 | – | – | – | – | – | – | –
42 | C=CCS | 65 | 2.72 | – | – | – | – | – | –
43 | COC(=O)c1c(C(F)F)nc(C(F)(F)F)c(C2=NCCS2)c1CC(C)C | – | -5.65 | 78 | – | – | – | – | –
44 | O=C(Nc1ccccc1)C(Cl)(Cl)Cl | – | – | 96 | – | – | – | – | –
45 | CCCCCCCCCCCCCCCCCCCCO | 372 | -7.34 | 66.1 | – | – | – | – | 12.1
46 | Cc1ccnc(N)c1 | – | – | 100 | – | – | – | – | –
47 | O=C(OC1CCCCC1)C(=O)OC1CCCCC1 | – | – | 43.5 | – | – | – | – | –
48 | CC=CC=CC=CC=O | – | – | 56.8 | – | – | – | – | –
49 | C=CCOC(=O)c1ccco1 | 208 | – | – | – | – | – | – | –
50 | CC(C)[C@@H](C)C(=O)O | 192 | – | -1.5 | – | – | – | – | –
51 | CON(C)C(=O)Nc1ccc(Br)c(Cl)c1 | – | -6.4 | 96 | – | – | 2.7 | – | –

Same assay, conditions: fish

Row | SMILES | log10 BCF | log10 biotransformation half-life (days)
52 | CC(C)COc1ccc2ccccc2c1 | 2.8 | 0.23
53 | ClC(Cl)=C(Cl)Cl | 1.72 | -0.88
54 | O=C(NC(=O)c1c(F)cccc1F)Nc1ccc(Cl)cc1 | 2.2 | –
55 | COc1c(Cl)ccc(Cl)c1Cl | 2.52 | –
